Like-named read-outs stand apart in the source and are kept apart here.
Assays:
[1] = Description: (§1) In another clinical test five volunteers were chose, all male and smokers, characterized by a strong formation of dental calculus (tartar), especially in the zone of the lingual face of the lower incisors. Each volunteer underwent an application of 200 mg of pure glutathione in powder on the lingual face of the lower incisors by means of a single-tuft toothbrush with medium bristles, followed-by a tooth brushing for ten minutes with the same toothbrush. After a rinse with water the operation was repeated, always for ten minutes using a further 200 mg of glutathione.
[2] = remark: listed apart in the source
Description: as §1, with “especially IN” for “especially in”, “of 500” for “of 200”, “bristles, followed by” for “bristles, followed-by”, “further 500” for “further 200”

[3] = aqueous solution of 2%, 30° C, without light, tooth rinsed and lightly brushed and solution changed every two days
Description: The in vitro evaluation of anti-tartar activity was carried out on an extracted tooth. The amount of tartar on said tooth was quantified before the test. The tooth was then immersed. Into an aqueous solution of 2% glutathlone and kept in a closed vessel without light at 30° C. Every two days said tooth was rinsed and lightly brushed and the solution was changed.

N[C@@H](CCC(=O)N[C@@H](CS)C(=O)NCC(=O)O)C(=O)O [glutathione]
reduction of dental calculus (tartar) ([1]; all five volunteers, zones where brushing had been carried out, 2 x 200 mg powder, 2 x ten minutes brushing): consistent reduction | residual dental calculus (tartar) ([1]; sub-gingival and interstitial zones where brushing had not been properly carried out, 2 x 200 mg): presence of residual dental calculus (tartar) | removal of dental calculus (tartar) ([2]; all five volunteers, zones where brushing had been carried out, 2 x 500 mg powder, 2 x ten minutes brushing): complete removal | residual dental calculus (tartar) ([2]; sub-gingival and interstitial zones where brushing had not been properly carried out, 2 x 500 mg): presence of residual dental calculus (tartar) | time until removal of tartar was completed [3]: two to three weeks | time until removal of tartar was evident [3]: after only four days
